Data: ChEMBL document CHEMBL1154736, “Increasing selectivity of CC chemokine receptor 8 antagonists by engineering nondesolvation related interactions with the intended and off-target binding sites” (J Med Chem, 2009)

Columns and labels:
[1] = biological target: C-C chemokine receptor type 8 (Homo sapiens, UniProt P51685); test: Antagonist activity at human CCR8; type: functional
[2] = biological target: Voltage-gated inwardly rectifying potassium channel KCNH2 (Homo sapiens, UniProt Q12809, S624T); test: Inhibition of human recombinant ERG S624T mutant expressed in CHOK1 cells by whole-cell plate-based electrophysiology; conditions: cho-k1
[3] = biological target: Voltage-gated inwardly rectifying potassium channel KCNH2 (Homo sapiens, UniProt Q12809, Y652F); test: Inhibition of human recombinant ERG Y652F mutant expressed in CHOK1 cells by whole-cell plate-based electrophysiology; conditions: cho-k1
[4] = Apparent n-Octanol-water partition coefficient, log D at pH 7.4 by HPLC analysis
[5] = biological target: Voltage-gated inwardly rectifying potassium channel KCNH2 (Homo sapiens, UniProt Q12809, F656T); test: Inhibition of human recombinant ERG F656T mutant expressed in CHOK1 cells by whole-cell plate-based electrophysiology; conditions: cho-k1
[6] = biological target: Voltage-gated inwardly rectifying potassium channel KCNH2 (Homo sapiens, UniProt Q12809, F656M); test: Inhibition of human recombinant ERG F656M mutant expressed in CHOK1 cells by whole-cell plate-based electrophysiology; conditions: cho-k1
[7] = biological target: Voltage-gated inwardly rectifying potassium channel KCNH2 (Homo sapiens, UniProt Q12809, T623S); test: Inhibition of human recombinant ERG T623S mutant expressed in CHOK1 cells by whole-cell plate-based electrophysiology; conditions: cho-k1
[8] = biological target: Voltage-gated inwardly rectifying potassium channel KCNH2 (Homo sapiens, UniProt Q12809, F656W); test: Inhibition of human recombinant ERG F656W mutant expressed in CHOK1 cells by whole-cell plate-based electrophysiology; conditions: cho-k1
[9] = biological target: T1, Voltage-gated inwardly rectifying potassium channel KCNH2 (Homo sapiens, UniProt Q12809); test: Inhibition of wild type human ERG expressed in CHOK1 cells by whole-cell plate-based electrophysiology
[10] = biological target: Voltage-gated inwardly rectifying potassium channel KCNH2 (Homo sapiens, UniProt Q12809, Y652A); test: Inhibition of human recombinant ERG Y652A mutant expressed in CHOK1 cells by whole-cell plate-based electrophysiology; conditions: cho-k1
[11] = biological target: T1, Voltage-gated inwardly rectifying potassium channel KCNH2; test: Displacement of [3H]dofetilide from human recombinant ERG expressed in HEK293 cells by patch clamp method
[12] = biological target: Voltage-gated inwardly rectifying potassium channel KCNH2 (Homo sapiens, UniProt Q12809, S624A); test: Inhibition of human recombinant ERG S624A mutant expressed in CHOK1 cells by whole-cell plate-based electrophysiology; conditions: cho-k1

C-C chemokine receptor type 8, sequence (P51685 whole entry): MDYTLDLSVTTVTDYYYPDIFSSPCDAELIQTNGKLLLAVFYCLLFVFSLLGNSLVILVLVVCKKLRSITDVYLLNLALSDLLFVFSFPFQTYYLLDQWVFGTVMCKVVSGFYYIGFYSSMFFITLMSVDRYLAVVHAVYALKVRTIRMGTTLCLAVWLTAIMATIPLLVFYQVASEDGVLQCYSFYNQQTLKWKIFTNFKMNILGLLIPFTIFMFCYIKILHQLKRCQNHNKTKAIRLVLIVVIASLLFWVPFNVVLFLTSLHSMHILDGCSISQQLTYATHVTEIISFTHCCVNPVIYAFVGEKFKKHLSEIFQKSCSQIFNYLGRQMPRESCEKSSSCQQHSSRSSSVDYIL

SMILES | IC50 [1] [nM] | logD [4] | delta pIC50 wt-mutant [2] | delta pIC50 wt-mutant [3] | delta pIC50 wt-mutant [5] | delta pIC50 wt-mutant [6] | delta pIC50 wt-mutant [7] | delta pIC50 wt-mutant [8] | IC50 [9] [nM] | delta pIC50 wt-mutant [10] | IC50 [11] [nM] | delta pIC50 wt-mutant [12]
CC1(C)Oc2cccc(CN3CCC4(CC3)CCN(C(=O)c3ccnc(N)c3)CC4)c2O1 | 6.61 | 1.2 | -0.33 | -0.19 | 1.37 | 0.62 | -0.06 | -0.39 | 16600 | 1.22 | 759 | 0.59
COc1ccccc1Oc1ccccc1CN1CCC2(CC1)CCN(C(=O)c1ccc[nH]c1=O)CC2 | 55 | 0.9 | 0.24 | 0.35 | 1.92 | 0.22 | 0.51 | -0.18 | 14100 | 1.19 | 2000 | 0.54
COc1ccccc1Oc1cccc(CN2CCC3(CC2)CCN(C(=O)c2ccncn2)CC3)c1 | 4.9 | 1.7 | -0.3 | -0.29 | 0.58 | -0.2 | 0.44 | -0.15 | 1910 | 0.98 | – | 0.67
CC1Cc2cccc(CN3CCC4(CC3)CCN(C(=O)c3ccncc3)CC4)c2O1 (centres undefined) | – | – | -0.12 | -0.21 | 1.41 | 1.04 | 0.24 | -0.58 | – | 1.63 | – | 0.61
O=C(c1ccncc1)N1CCC2(CCN(Cc3ccccc3OC(F)(F)C(F)F)CC2)CC1 | 525 | 2.8 | -0.08 | -0.32 | 1.42 | 0.48 | 0.06 | -0.54 | 5130 | 1 | 17000 | 0.11
CC1(C)Cc2c(CN3CCC4(CC3)CCN(C(=O)c3ccc(N)cn3)CC4)cccc2O1 | 8.13 | 1.3 | 0.31 | 0.68 | 0.2 | -0.22 | 0.49 | -0.66 | 16600 | 1.23 | 12900 | 0.79
CC1(C)Cc2c(CN3CCC4(CC3)CCN(C(=O)c3ccncc3)CC4)cccc2O1 | 30.9 | 1.6 | – | – | – | – | – | – | 7080 | – | 30200 | –
O=C(c1ccncn1)N1CCC2(CCN(Cc3ccccc3Oc3ccccc3)CC2)CC1 | 141 | 2 | – | – | – | – | – | – | – | – | – | –
CCCC1(CC)Cc2c(CN3CCC4(CC3)CCN(C(=O)c3ccc(N)cn3)CC4)cccc2O1 (centres undefined) | 2.4 | 2.5 | – | – | – | – | – | – | – | – | – | –
CC1(C)CCc2cc(CN3CCC4(CC3)CCN(C(=O)c3ccc(N)cn3)CC4)ccc2O1 | 95.5 | 1.1 | -0.28 | 0.47 | -0.09 | -0.66 | 0.24 | -0.35 | 19500 | 0.83 | 32400 | 1.09
CC(C)(C)C1(C)Cc2c(CN3CCC4(CC3)CCN(C(=O)c3ccc(N)cn3)CC4)cccc2O1 (centres undefined) | 2.82 | 2.6 | – | – | – | – | – | – | – | – | – | –
C=C(C)COc1ccccc1CN1CCC2(CC1)CCN(C(=O)c1ccncc1)CC2 | 70.8 | 1.6 | – | – | – | – | – | – | – | – | – | –
CC1(C)C=Cc2cccc(CN3CCC4(CC3)CCN(C(=O)c3ccnc(N)c3)CC4)c2O1 | 5.62 | 1.5 | -0.62 | 0.04 | 1.32 | 0.37 | 0.2 | -0.75 | – | 0.93 | – | 0.48

Further compounds by falling IC50 [1], results first:

IC50 [1] [nM] | logD [4] | SMILES | delta pIC50 wt-mutant [2] | delta pIC50 wt-mutant [3] | delta pIC50 wt-mutant [5] | delta pIC50 wt-mutant [6] | delta pIC50 wt-mutant [7] | delta pIC50 wt-mutant [8] | IC50 [9] [nM] | delta pIC50 wt-mutant [10] | IC50 [11] [nM] | delta pIC50 wt-mutant [12]
1820 | 0.9 | CC1(C)CCc2cc(CN3CCC4(CC3)CCN(C(=O)c3ccncn3)CC4)ccc2O1 | -0.39 | 0.11 | 0.46 | -0.3 | 0.39 | -0.14 | 11200 | 0.82 | – | 0.74
1480 | 0.3 | O=C(c1ccncc1)N1CCC2(CCN(Cc3cccc4c3OCC4)CC2)CC1 | – | – | – | – | – | – | – | – | – | –
141 | -0.11 | CC(C)COc1ccccc1CN1CCC2(CC1)CCN(C(=O)c1ccncn1)CC2 | 0.12 | -0.42 | 1.65 | 0.21 | 0.22 | -0.42 | 4900 | 0.7 | 19100 | 0.51
107 | 1.8 | CC(C)COc1ccccc1CN1CCC2(CC1)CCN(C(=O)c1ccncc1)CC2 | – | – | – | – | – | – | – | – | – | –
22.4 | 1.4 | CC1(C)Cc2c(CN3CCC4(CC3)CCN(C(=O)c3ccnc(N)c3)CC4)cccc2O1 | -0.58 | -0.37 | 1.32 | 0.14 | 0.01 | -0.61 | 28800 | 0.89 | 17000 | 0.55
22.4 | 1.4 | CC1(C)Cc2cccc(CN3CCC4(CC3)CCN(C(=O)c3ncccc3N)CC4)c2O1 | 0.43 | 0.64 | 0.77 | -0.26 | 0.41 | -0.32 | 4170 | 1.81 | 32400 | 1.32
14.8 | 1.2 | COc1ccccc1Oc1ccccc1CN1CCC2(CC1)CCN(C(=O)c1ccncn1)CC2 | – | – | – | – | – | – | – | – | – | –
11.5 | – | COc1ccccc1Oc1ccccc1CN1CCC2(CC1)CCN(C(=O)c1ccncc1)CC2 | – | – | – | – | – | – | – | – | – | –
2.63 | 2.3 | CC1(C)Oc2c(CN3CCC4(CC3)CCN(C(=O)c3ccc(N)cn3)CC4)cccc2C1(F)F | -0.62 | 0.02 | -0.17 | -0.49 | 0.01 | -1.07 | 30900 | 0.87 | 47900 | 0.36
2.63 | 1 | CC1(C)Cc2cccc(CN3CCC4(CC3)CCN(C(=O)c3ccc(N)cn3)CC4)c2O1 | -0.05 | 0.35 | 0.51 | -0.31 | 0.22 | -0.99 | 43700 | 0.83 | 37200 | 0.82
